In PMC12295306, “Gut Microbial Postbiotics as Potential Therapeutics for Lymphoma: Proteomics Insights of the Synergistic Effects of Nisin and Urolithin B Against Human Lymphoma Cells” (International Journal of Molecular Sciences, 2025):

What was measured:
HKB-11 lymphoma cells [1] = assay: ROS production, H2DCFDA assay; format: cell-based, human; conditions: 4 h
Procedure: Briefly, HKB-11 lymphoma cells (2.5 × 10^5 cells/mL) were cultured in a 96-well plate, allowed to adhere overnight, and treated with 20 μM H2DCFDA for 45 min to assess ROS levels. The dye solution was removed, and cells were washed with 1× buffer. Next, the cells were treated with N (8000 μM), N (4000 μM), UB (500 μM), UB (250 μM), N/UB (3500 μM), N/UB (1750 μM), N/UB (5750 μM), N/UB (2875 μM), Dox (4 μM), and tert-butyl hydroperoxide (TBHP) (150 μM) and then incubated at 37 °C for 4 h. Finally, the plate was immediately read at Ex/Em = 485/535 nm using a microplate spectrophotometer (BMG CLARIOstar, VIC, Australia). The fold change in ROS production was determined relative to the untreated control (cells treated with the supplement buffer according to the manufacturer’s protocol).

HKB-11 lymphoma cells [2] = assay: Flow cytometry apoptosis profile, Annexin V-CF Blue / 7-AAD; format: cell-based, human; conditions: 24 h
Procedure: The HKB-11 cells were cultured in T75 cell culture flasks with an initial density of 1 × 10^6 cells per 10 mL at 37 °C in the presence of 5% CO2 for 24 h. The following day, the cell culture media was removed from each flask and replaced with fresh FBS-containing media. […] An FBS-containing medium was used as the untreated control. The flasks were then incubated at 37 °C with 5% CO2 for 24 h. Then, the cell culture media from each flask were collected. Subsequently, trypsin (0.25% w/v) was applied to the flasks for 4 min at 37 °C. The trypsin reaction was neutralised with an equal volume of 10% FBS serum-containing media, and the cells were combined with the previously collected media. The cell pellets were obtained by centrifuging at 500× g for 5 min at room temperature (RT). This procedure was repeated by suspending the cell pellets in 1 mL of PBS each time. The collected cell pellets from each treatment were immediately suspended in 500 μL of 1× binding buffer and gently mixed by pipetting. Annexin V-CF Blue (5 μL) and 7-AAD (5 μL) staining solutions were added to 100 μL of the cell suspension. The stained cells were incubated for 15 min in the dark at RT, after which 400 μL of a 1× assay buffer was added to each cell suspension. Subsequently, the cells were examined using a flow cytometer (Novocyte 3000, ACEA Biosciences Inc., San Diego, CA, USA), and data analysis and processing were performed using NovoExpress software (version 1.5.0, ACEA Biosciences Inc., CA, USA). In the initial step, the cells were gated on forward and side scatter modes to exclude cell aggregates and debris near the origin. The cells were then gated on dot plots, where Annexin V-CF in Pacific Blue was plotted against 7-AAD fluorescence in PerCP. Quadrants were positioned relative to the untreated control, indicating live cells ([…] and −7-AAD) appearing in the lower-left quadrant, early apoptotic cells (+Annexin V and −7-AAD) in the lower-right quadrant, late apoptotic cells (+Annexin V and +7-AAD) in the upper-right quadrant, and necrotic cells (−Annexin V and +7-AAD) in the upper-left quadrant. For statistical analyses and visualisation, the percentage data of cells in each quadrant after different treatments (n = 3) were exported to GraphPad Prism software (version 9.0, San Diego, CA, USA).

[3] = cited from earlier work
From the text: Both N and UB face challenges regarding bioavailability. […] Thus, formulation strategies or delivery systems to enhance systemic exposure warrant exploration in future studies.

Compound: Nisin (ITSISLCTPGCKTGALMGCNMKTATCHCSIHVSK; Lantibiotic nisin-A; UniProt P13068 24-57, looked up) [34-amino-acid lantibiotic peptide (bacteriocin) produced by Lactococcus lactis; purchased]
- ROS levels compared to the untreated control (HKB-11 lymphoma cells [1]; HKB-11, 8000 μM, p ≤ 0.01, n = 3): statistically significant increase
- Apoptosis induction (HKB-11 lymphoma cells [2]; HKB-11, 3200 µM, p ≤ 0.0001, compared with 8000 μM): induced apoptosis with greater potency
- Cell death relative to untreated controls (HKB-11 lymphoma cells [2]; HKB-11, 8000 μM, p ≤ 0.01, apoptotic and necrotic populations elevated): significantly increased cell death
- Proteolytic stability [3]: susceptibility to proteolytic degradation
- Stability in the gastrointestinal tract [3]: degraded in the gastrointestinal tract
- Systemic absorption [3]: low systemic absorption

Compound: O=c1oc2cc(O)ccc2c2ccccc12 [UB, Urolithin B]
- ROS levels compared to the untreated control (HKB-11 lymphoma cells [1]; HKB-11, 500 μM and 250 μM, p ≥ 0.05, n = 3): minimal changes
- Apoptosis induction compared to the untreated control (HKB-11 lymphoma cells [2]; HKB-11, 500 µM, p ≤ 0.0001): greater apoptotic induction
- Metabolism [3]: extensively metabolised
- Oral bioavailability [3]: moderate oral bioavailability
